Data on two compounds can be found in US20230126893A1, “[(1,4,5-TRISUBSTITUTED-1H-PYRAZOL-3-YL)SULFANYL]ACETIC ACID DERIVATIVES, SALTS THEREOF, AND USE THEREOF AS ACTIVE HERBICIDAL INGREDIENTS” (BAYER AKTIENGESELLSCHAFT, priority 2020, published 2023).

The first test concerns Stellaria media. Put plainly: Pre-emergence herbicidal effect against STEME. It counts as in vivo. Particulars: 1280 g/ha, visual score after 3 weeks, 100% = plants have died, 0% = like control plants. An excerpt:
(§1) 1. Pre-emergence herbicidal effect and crop plant compatibility Seeds of monocotyledonous and dicotyledonous weed plants and crop plants are laid out in sandy loam soil in wood-fibre pots and covered with soil. The compounds of the invention, formulated in the form of wettable powders (WP) or as emulsion concentrates (EC), are then applied to the surface of the covering soil as aqueous suspension or emulsion at a water application rate equating to 600 to 800 L/ha with addition of 0.2% wetting agent. After the treatment, the pots are placed in a greenhouse and kept under good growth conditions for the trial plants. The damage to the test plants is scored visually after a test period of 3 weeks by comparison with untreated controls (herbicidal activity in percent (%): 100% activity=the plants have died, 0% activity=like control plants). [table]
Regarding `O=C(O)CSc1nn(-c2ccccc2F)c(-c2ccc(F)c(F)c2)c1[N+](=O)[O-]` [Example I-024], the “Pre-emergence action against STEME” value is 100%.
In the case of `CCOC(=O)CSc1nn(-c2ccc(F)cc2F)c(-c2ccc(F)c(F)c2)c1Br` [Example I-027], the “Pre-emergence action against STEME” value is on record as 100%.

A further test has as its system Bassia scoparia. Nature of the test: Post-emergence herbicidal effect against KCHSC. The format is in vivo. Particulars: 1280 g/ha, visual assessment about 3 weeks after treatment, 100% = plants have died, 0% = like control plants. The protocol:
(§2) [table] 2. Post-emergence herbicidal effect and crop plant compatibility Seeds of monocotyledonous and dicotyledonous weed and crop plants are laid out in sandy loam soil in wood-fibre pots, covered with soil and cultivated in a greenhouse under good growth conditions. 2 to 3 weeks after sowing, the test plants are treated at the one-leaf stage. The compounds of the invention, formulated in the form of wettable powders (WP) or as emulsion concentrates (EC), are then sprayed onto the green parts of the plants as aqueous suspension or emulsion at a water application rate equating to 600 to 800 l/ha with addition of 0.2% wetting agent. After the test plants have been left to stand in the greenhouse under optimal growth conditions for about 3 weeks, the action of the preparations is assessed visually in comparison to untreated controls (herbicidal action in percent (%): 100% activity=the plants have died, 0% activity=like control plants).
For the compound `O=C(O)CSc1nn(-c2ccccc2F)c(-c2ccc(F)c(F)c2)c1[N+](=O)[O-]` [Example I-024], the “Post-emergence action against KCHSC” value is on record as 90%.
As to `CCOC(=O)CSc1nn(-c2ccc(F)cc2F)c(-c2ccc(F)c(F)c2)c1Br` [Example I-027], the “Post-emergence action against KCHSC” value worked out at 90%.

Another test relates to Setaria viridis. Nature of the test: Post-emergence herbicidal effect against SETVI. It counts as in vivo. Particulars: 1280 g/ha, visual assessment about 3 weeks after treatment, 100% = plants have died, 0% = like control plants. On the procedure: as §2
With `O=C(O)CSc1nn(-c2ccccc2F)c(-c2ccc(F)c(F)c2)c1[N+](=O)[O-]` [Example I-024], the “Post-emergence action against SETVI” value turned out to be 100%.

A further test has as its system Poa annua. Nature of the test: Pre-emergence herbicidal effect against POAAN. The format is in vivo. Conditions: 1280 g/ha, visual score after 3 weeks, 100% = plants have died, 0% = like control plants.
Description: as §1
Turning to `O=C(O)CSc1nn(-c2ccccc2F)c(-c2ccc(F)c(F)c2)c1[N+](=O)[O-]` [Example I-024], the “Pre-emergence action against POAAN” value came out at 100%.
Still for that read-out and setting: next, `CCOC(=O)CSc1nn(-c2ccc(F)cc2F)c(-c2ccc(F)c(F)c2)c1Br` [Example I-027]: 100%.

A further test has as its system Stellaria media. Put plainly: Post-emergence herbicidal effect against STEME. It counts as in vivo. Conditions: 1280 g/ha, visual assessment about 3 weeks after treatment, 100% = plants have died, 0% = like control plants. On the procedure: as §2
Turning to `CCOC(=O)CSc1nn(-c2ccc(F)cc2F)c(-c2ccc(F)c(F)c2)c1Br` [Example I-027], the “Post-emergence action against STEME” value is given as 90%.

A further test deals with Veronica persica. Put plainly: Post-emergence herbicidal effect against VERPE. The format is in vivo. Conditions: 1280 g/ha, visual assessment about 3 weeks after treatment, 100% = plants have died, 0% = like control plants. The protocol: as §2
Take `O=C(O)CSc1nn(-c2ccccc2F)c(-c2ccc(F)c(F)c2)c1[N+](=O)[O-]` [Example I-024]: the “Post-emergence action against VERPE” value came to 100%.
Turning to `CCOC(=O)CSc1nn(-c2ccc(F)cc2F)c(-c2ccc(F)c(F)c2)c1Br` [Example I-027], the “Post-emergence action against VERPE” value amounted to 100%.

A further test has as its system Setaria viridis. Nature of the test: Pre-emergence herbicidal effect against SETVI. It counts as in vivo. Conditions: 1280 g/ha, visual score after 3 weeks, 100% = plants have died, 0% = like control plants.
Description: as §1
As for `O=C(O)CSc1nn(-c2ccccc2F)c(-c2ccc(F)c(F)c2)c1[N+](=O)[O-]` [Example I-024], the “Pre-emergence action against SETVI” value is 100%.
Same read-out and setting: to `CCOC(=O)CSc1nn(-c2ccc(F)cc2F)c(-c2ccc(F)c(F)c2)c1Br` [Example I-027] belongs 100%.

The test system of another test is Echinochloa crus-galli. Put plainly: Post-emergence herbicidal effect against ECHCG. It counts as in vivo. Conditions: 1280 g/ha, visual score after about 3 weeks, 100% = plants have died, 0% = like control plants. On the procedure: as §2
Turning to `O=C(O)CSc1nn(-c2ccccc2F)c(-c2ccc(F)c(F)c2)c1[N+](=O)[O-]` [Example I-024], the “Post-emergence action against ECHCG” value is given as 90%.

In the next test the test system is Abutylon threophrasti. Put plainly: Post-emergence herbicidal effect against ABUTH. It counts as in vivo. Conditions: 1280 g/ha, visual assessment about 3 weeks after treatment, 100% = plants have died, 0% = like control plants. The protocol:
as §2
Regarding `O=C(O)CSc1nn(-c2ccccc2F)c(-c2ccc(F)c(F)c2)c1[N+](=O)[O-]` [Example I-024], the “Post-emergence action against ABUTH” value was 90%.

The next test concerns Digitaria sanguinalis. Nature of the test: Pre-emergence herbicidal effect against DIGSA. Conditions: 1280 g/ha, visual score after 3 weeks, 100% = plants have died, 0% = like control plants. It counts as in vivo.
Description: as §1
For the compound `O=C(O)CSc1nn(-c2ccccc2F)c(-c2ccc(F)c(F)c2)c1[N+](=O)[O-]` [Example I-024], the “Pre-emergence action against DIGSA” value was 100%.
With `CCOC(=O)CSc1nn(-c2ccc(F)cc2F)c(-c2ccc(F)c(F)c2)c1Br` [Example I-027], the “Pre-emergence action against DIGSA” value is reported as 100%.

For the next test, the system named is Veronica persica. Put plainly: Pre-emergence herbicidal effect against VERPE. The format is in vivo. Particulars: 1280 g/ha, visual score after 3 weeks, 100% = plants have died, 0% = like control plants.
Description: as §1
For the compound `O=C(O)CSc1nn(-c2ccccc2F)c(-c2ccc(F)c(F)c2)c1[N+](=O)[O-]` [Example I-024], the “Pre-emergence action against VERPE” value is on record as 100%.
Still for that read-out and setting: next, `CCOC(=O)CSc1nn(-c2ccc(F)cc2F)c(-c2ccc(F)c(F)c2)c1Br` [Example I-027]: 90%.

For a further test, the system named is Echinochloa crus-galli. Put plainly: Pre-emergence herbicidal effect against ECHCG. It counts as in vivo. Particulars: 1280 g/ha, visual score after 3 weeks, 100% = plants have died, 0% = like control plants.
Description: as §1
For `O=C(O)CSc1nn(-c2ccccc2F)c(-c2ccc(F)c(F)c2)c1[N+](=O)[O-]` [Example I-024], the “Pre-emergence action against ECHCG” value is on record as 90%.

The next test deals with Tripleurospermum inodorum. Put plainly: Pre-emergence herbicidal effect against MATIN. It counts as in vivo. Conditions: 1280 g/ha, visual score after 3 weeks, 100% = plants have died, 0% = like control plants.
Description: as §1
For the compound `O=C(O)CSc1nn(-c2ccccc2F)c(-c2ccc(F)c(F)c2)c1[N+](=O)[O-]` [Example I-024], the “Pre-emergence action against MATIN” value came to 100%.
Take `CCOC(=O)CSc1nn(-c2ccc(F)cc2F)c(-c2ccc(F)c(F)c2)c1Br` [Example I-027]: the “Pre-emergence action against MATIN” value amounted to 100%.

The subject of another test is Alopecurus myosuroides. Nature of the test: Post-emergence herbicidal effect against ALOMY. The format is in vivo. Particulars: 1280 g/ha, visual score after about 3 weeks, 100% = plants have died, 0% = like control plants. The protocol: as §2
As for `O=C(O)CSc1nn(-c2ccccc2F)c(-c2ccc(F)c(F)c2)c1[N+](=O)[O-]` [Example I-024], the “Post-emergence action against ALOMY” value is 100%.
With `CCOC(=O)CSc1nn(-c2ccc(F)cc2F)c(-c2ccc(F)c(F)c2)c1Br` [Example I-027], the “Post-emergence action against ALOMY” value is 100%.

The next test concerns Alopecurus myosuroides. Nature of the test: Pre-emergence herbicidal effect against ALOMY. It counts as in vivo. Particulars: 1280 g/ha, visual score after 3 weeks, 100% = plants have died, 0% = like control plants.
Description: as §1
For `O=C(O)CSc1nn(-c2ccccc2F)c(-c2ccc(F)c(F)c2)c1[N+](=O)[O-]` [Example I-024], the “Pre-emergence action against ALOMY” value is given as 90%.

The subject of the next test is Poa annua. Put plainly: Post-emergence herbicidal effect against POAAN. The format is in vivo. Particulars: 1280 g/ha, visual assessment about 3 weeks after treatment, 100% = plants have died, 0% = like control plants. On the procedure:
as §2
On to `O=C(O)CSc1nn(-c2ccccc2F)c(-c2ccc(F)c(F)c2)c1[N+](=O)[O-]` [Example I-024], for which the “Post-emergence action against POAAN” value amounted to 100%.
For the compound `CCOC(=O)CSc1nn(-c2ccc(F)cc2F)c(-c2ccc(F)c(F)c2)c1Br` [Example I-027], the “Post-emergence action against POAAN” value is on record as 90%.

Another test has as its system Tripleurospermum inodorum. Put plainly: Post-emergence herbicidal effect against MATIN. It counts as in vivo. Particulars: 1280 g/ha, visual assessment about 3 weeks after treatment, 100% = plants have died, 0% = like control plants. The protocol:
as §2
As to `O=C(O)CSc1nn(-c2ccccc2F)c(-c2ccc(F)c(F)c2)c1[N+](=O)[O-]` [Example I-024], the “Post-emergence action against MATIN” value is given as 100%.

The test system of a further test is Digitaria sanguinalis. Nature of the test: Post-emergence herbicidal effect against DIGSA. It counts as in vivo. Particulars: 1280 g/ha, visual score after about 3 weeks, 100% = plants have died, 0% = like control plants. The protocol: as §2
For `O=C(O)CSc1nn(-c2ccccc2F)c(-c2ccc(F)c(F)c2)c1[N+](=O)[O-]` [Example I-024], the “Post-emergence action against DIGSA” value was 100%.
Consider `CCOC(=O)CSc1nn(-c2ccc(F)cc2F)c(-c2ccc(F)c(F)c2)c1Br` [Example I-027], for which the “Post-emergence action against DIGSA” value is given as 100%.

Another test concerns Lolium rigidum. Put plainly: Pre-emergence herbicidal effect against LOLRI. It counts as in vivo. Conditions: 1280 g/ha, visual score after 3 weeks, 100% = plants have died, 0% = like control plants.
Description: as §1
Regarding `O=C(O)CSc1nn(-c2ccccc2F)c(-c2ccc(F)c(F)c2)c1[N+](=O)[O-]` [Example I-024], the “Pre-emergence action against LOLRI” value is recorded as 100%.
For the compound `CCOC(=O)CSc1nn(-c2ccc(F)cc2F)c(-c2ccc(F)c(F)c2)c1Br` [Example I-027], the “Pre-emergence action against LOLRI” value was determined as 90%.
